Experimental data as given in patent publication US20100298141A1, “SUBSTITUTED PYRIDINE N-OXIDE HERBICIDES” (E. I. DU PONT DE NEMOURS AND COMPANY, priority 2007, published 2010).

What was measured:
Experiment in all cases: Test F preemergence test
[1] = tested on: common mallow; assay type: in vivo, Malva sylvestris; conditions: scale 0 to 100
Method in brief: (§1)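 Test chemicals were formulated in a non-phytotoxic solvent mixture with surfactant and applied preemergence to planted seeds or postemergence to sugarcane plants. Plants were kept in a greenhouse for 14 to 21 days, then visually evaluated against controls.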

[2] = tested on: pitted morningglory; assay type: in vivo, Ipomoea lacunosa; conditions: scale 0 to 100
Method in brief: as §1

[3] = tested on: naked crabgrass; assay type: in vivo, Digitaria nuda; conditions: scale 0 to 100
Method in brief: as §1

[4] = tested on: common purslane; assay type: in vivo, Portulaca oleracea; conditions: scale 0 to 100
Method in brief: as §1

[5] = tested on: Russian thistle; assay type: in vivo, Salsola kali; conditions: scale 0 to 100
Method in brief: as §1

[6] = tested on: field bindweed; assay type: in vivo, Convolvulus arvensis; conditions: scale 0 to 100
Method in brief: as §1

[7] = tested on: spanishneedles; assay type: in vivo, Bidens bipinnata; conditions: scale 0 to 100
Method in brief: as §1

[8] = tested on: itchgrass; assay type: in vivo, Rottboellia cochinchinensis; conditions: scale 0 to 100
Method in brief: as §1

[9] = tested on: prickly sida; assay type: in vivo, Sida spinosa; conditions: scale 0 to 100
Method in brief: as §1

[10] = tested on: annual bluegrass; assay type: in vivo, Poa annua; conditions: scale 0 to 100
Method in brief: as §1

[11] = tested on: green foxtail; assay type: in vivo, Setaria viridis; conditions: scale 0 to 100
Method in brief: as §1

[12] = tested on: guineagrass; assay type: in vivo, Panicum maximum; conditions: scale 0 to 100
Method in brief: as §1

[13] = tested on: johnsongrass; assay type: in vivo, Sorghum halepense; conditions: scale 0 to 100
Method in brief: as §1

[14] = tested on: Virginia dayflower; assay type: in vivo, Commelina virginica; conditions: scale 0 to 100
Method in brief: as §1

[15] = tested on: dallisgrass; assay type: in vivo, Paspalum dilatatum; conditions: scale 0 to 100
Method in brief: as §1

[16] = tested on: common sowthistle; assay type: in vivo, Sonchus oleraceous; conditions: scale 0 to 100
Method in brief: as §1

[17] = tested on: common groundsel; assay type: in vivo, Senecio vulgaris; conditions: scale 0 to 100
Method in brief: as §1

[18] = tested on: Canada horseweed; assay type: in vivo, Conyza canadensis; conditions: 125 g ai/ha, preemergence, scale 0 to 100
Method in brief: as §1

## Cc1cc[n+]([O-])c(S(=O)(=O)C(Cl)c2c(C(F)(F)F)nn(C)c2OCC(F)(F)F)c1 (racemic) [Compound 37]
[1]; 16 g ai/ha, preemergence
  Plant response rating, Mallow: 0
[1]; 62 g ai/ha, Preemergence
  Mallow plant response rating: 0
[1]; 125 g ai/ha, preemergence
  Mallow plant response rating: 90
[1]; Preemergence, 31 g ai/ha
  Plant response rating, Mallow: 0
[2]; 16 g ai/ha, preemergence
  Plant response rating, Morningglory: 0
[2]; 62 g ai/ha, Preemergence
  Morningglory plant response rating: 0
[2]; 125 g ai/ha, preemergence
  Morningglory plant response rating: 35
[2]; Preemergence, 31 g ai/ha
  Plant response rating, Morningglory: 0
[3]; 16 g ai/ha, preemergence
  Plant response rating, Crabgrass, Naked: 40
[3]; 62 g ai/ha, Preemergence
  Crabgrass, Naked plant response rating: 40
[3]; 125 g ai/ha, preemergence
  Crabgrass, Naked plant response rating: 100
[4]; 16 g ai/ha, preemergence
  Plant response rating, Purslane: 0
[4]; 62 g ai/ha, Preemergence
  Purslane plant response rating: 25
[4]; 125 g ai/ha, preemergence
  Purslane plant response rating: 50
[4]; Preemergence, 31 g ai/ha
  Plant response rating, Purslane: 0
[5]; 16 g ai/ha, preemergence
  Plant response rating, Russian Thistle: 0
[5]; Preemergence, 31 g ai/ha
  Plant response rating, Russian Thistle: 0
[6]; 16 g ai/ha, preemergence
  Plant response rating, Field Bindweed: 0
[6]; 62 g ai/ha, Preemergence
  Field Bindweed plant response rating: 0
[6]; 125 g ai/ha, preemergence
  Field Bindweed plant response rating: 0
[6]; Preemergence, 31 g ai/ha
  Plant response rating, Field Bindweed: 0
[7]; 16 g ai/ha, preemergence
  Plant response rating, Spanishneedles: 0
[7]; 125 g ai/ha, preemergence
  Spanishneedles plant response rating: 0
[7]; Preemergence, 62 g ai/ha
  Plant response rating, Spanishneedles: 0
[7]; Preemergence, 31 g ai/ha
  Plant response rating, Spanishneedles: 0
[8]; 16 g ai/ha, preemergence
  Plant response rating, Itchgrass: 0
[8]; 62 g ai/ha, Preemergence
  Itchgrass plant response rating: 35
[8]; 125 g ai/ha, preemergence
  Itchgrass plant response rating: 80
[8]; Preemergence, 31 g ai/ha
  Plant response rating, Itchgrass: 0
[9]; 16 g ai/ha, preemergence
  Plant response rating, Prickly Sida: 0
[9]; 62 g ai/ha, Preemergence
  Prickly Sida plant response rating: 35
[9]; 125 g ai/ha, preemergence
  Prickly Sida plant response rating: 90
[9]; Preemergence, 31 g ai/ha
  Plant response rating, Prickly Sida: 15
[10]; 16 g ai/ha, preemergence
  Plant response rating, Bluegrass: 0
[10]; 62 g ai/ha, Preemergence
  Bluegrass plant response rating: 60
[10]; 125 g ai/ha, preemergence
  Bluegrass plant response rating: 80
[10]; Preemergence, 31 g ai/ha
  Plant response rating, Bluegrass: 10
[11]; 16 g ai/ha, preemergence
  Plant response rating, Foxtail, Green: 0
[11]; 62 g ai/ha, Preemergence
  Foxtail, Green plant response rating: 15
[11]; 125 g ai/ha, preemergence
  Foxtail, Green plant response rating: 90
[11]; Preemergence, 31 g ai/ha
  Plant response rating, Foxtail, Green: 10
[12]; 16 g ai/ha, preemergence
  Plant response rating, Guineagrass: 65
[12]; 62 g ai/ha, Preemergence
  Guineagrass plant response rating: 85
[12]; 125 g ai/ha, preemergence
  Guineagrass plant response rating: 100
[12]; Preemergence, 31 g ai/ha
  Plant response rating, Guineagrass: 75
[13]; 16 g ai/ha, preemergence
  Plant response rating, Johnsongrass: 30
[13]; 62 g ai/ha, Preemergence
  Johnsongrass plant response rating: 75
[13]; 125 g ai/ha, preemergence
  Johnsongrass plant response rating: 100
[13]; Preemergence, 31 g ai/ha
  Plant response rating, Johnsongrass: 75
[14]; 16 g ai/ha, preemergence
  Plant response rating, Dayflower: 0
[14]; 62 g ai/ha, Preemergence
  Dayflower plant response rating: 100
[14]; 125 g ai/ha, preemergence
  Dayflower plant response rating: 100
[14]; Preemergence, 31 g ai/ha
  Plant response rating, Dayflower: 90
[15]; 16 g ai/ha, preemergence
  Plant response rating, Dallisgrass: 0
[15]; 62 g ai/ha, Preemergence
  Dallisgrass plant response rating: 75
[15]; 125 g ai/ha, preemergence
  Dallisgrass plant response rating: 100
[15]; Preemergence, 31 g ai/ha
  Plant response rating, Dallisgrass: 25

## Cc1cc[n+]([O-])c(S(=O)(=O)C(C)c2c(C(F)(F)F)nn(C)c2OC(F)F)c1 (stereo not drawn) [Compound 11]
[1]; 62 g ai/ha, Preemergence
  Mallow plant response rating: 100
[1]; 125 g ai/ha, preemergence
  Mallow plant response rating: 100
[1]; Preemergence, 16 g ai/ha
  Plant response rating, Mallow: 30
[1]; Preemergence, 31 g ai/ha
  Plant response rating, Mallow: 30
[16]; 62 g ai/ha, Preemergence
  Sowthistle plant response rating: 100
[16]; 125 g ai/ha, preemergence
  Sowthistle plant response rating: 100
[16]; Preemergence, 31 g ai/ha
  Plant response rating, Sowthistle: 90
[2]; 62 g ai/ha, Preemergence
  Morningglory plant response rating: 90
[2]; 125 g ai/ha, preemergence
  Morningglory plant response rating: 100
[2]; Preemergence, 16 g ai/ha
  Plant response rating, Morningglory: 0
[2]; Preemergence, 31 g ai/ha
  Plant response rating, Morningglory: 30
[3]; 62 g ai/ha, Preemergence
  Crabgrass, Naked plant response rating: 98
[3]; 125 g ai/ha, preemergence
  Crabgrass, Naked plant response rating: 100
[3]; Preemergence, 16 g ai/ha
  Plant response rating, Crabgrass, Naked: 90
[3]; Preemergence, 31 g ai/ha
  Plant response rating, Crabgrass, Naked: 98
[4]; 62 g ai/ha, Preemergence
  Purslane plant response rating: 70
[4]; 125 g ai/ha, preemergence
  Purslane plant response rating: 80
[4]; Preemergence, 16 g ai/ha
  Plant response rating, Purslane: 40
[4]; Preemergence, 31 g ai/ha
  Plant response rating, Purslane: 60
[5]; 62 g ai/ha, Preemergence
  Russian Thistle plant response rating: 100
[5]; 125 g ai/ha, preemergence
  Russian Thistle plant response rating: 100
[5]; Preemergence, 31 g ai/ha
  Plant response rating, Russian Thistle: 100
[17]; 62 g ai/ha, Preemergence
  Groundsel plant response rating: 95
[17]; 125 g ai/ha, preemergence
  Groundsel plant response rating: 98
[17]; Preemergence, 16 g ai/ha
  Plant response rating, Groundsel: 0
[17]; Preemergence, 31 g ai/ha
  Plant response rating, Groundsel: 25
[6]; 62 g ai/ha, Preemergence
  Field Bindweed plant response rating: 60
[6]; 125 g ai/ha, preemergence
  Field Bindweed plant response rating: 75
[6]; Preemergence, 16 g ai/ha
  Plant response rating, Field Bindweed: 0
[6]; Preemergence, 31 g ai/ha
  Plant response rating, Field Bindweed: 0
[18]
  Horseweed plant response rating: 100
[8]; 62 g ai/ha, Preemergence
  Itchgrass plant response rating: 70
[8]; 125 g ai/ha, preemergence
  Itchgrass plant response rating: 95
[8]; Preemergence, 16 g ai/ha
  Plant response rating, Itchgrass: 0
[8]; Preemergence, 31 g ai/ha
  Plant response rating, Itchgrass: 40
[9]; 62 g ai/ha, Preemergence
  Prickly Sida plant response rating: 95
[9]; 125 g ai/ha, preemergence
  Prickly Sida plant response rating: 100
[9]; Preemergence, 16 g ai/ha
  Plant response rating, Prickly Sida: 0
[9]; Preemergence, 31 g ai/ha
  Plant response rating, Prickly Sida: 70
[10]; 62 g ai/ha, Preemergence
  Bluegrass plant response rating: 60
[10]; 125 g ai/ha, preemergence
  Bluegrass plant response rating: 90
[10]; Preemergence, 16 g ai/ha
  Plant response rating, Bluegrass: 0
[10]; Preemergence, 31 g ai/ha
  Plant response rating, Bluegrass: 30
[11]; 62 g ai/ha, Preemergence
  Foxtail, Green plant response rating: 80
[11]; 125 g ai/ha, preemergence
  Foxtail, Green plant response rating: 90
[11]; Preemergence, 16 g ai/ha
  Plant response rating, Foxtail, Green: 5
[11]; Preemergence, 31 g ai/ha
  Plant response rating, Foxtail, Green: 35
[12]; 62 g ai/ha, Preemergence
  Guineagrass plant response rating: 100
[12]; 125 g ai/ha, preemergence
  Guineagrass plant response rating: 100
[12]; Preemergence, 16 g ai/ha
  Plant response rating, Guineagrass: 70
[12]; Preemergence, 31 g ai/ha
  Plant response rating, Guineagrass: 90
[13]; 62 g ai/ha, Preemergence
  Johnsongrass plant response rating: 90
[13]; 125 g ai/ha, preemergence
  Johnsongrass plant response rating: 95
[13]; Preemergence, 16 g ai/ha
  Plant response rating, Johnsongrass: 70
[13]; Preemergence, 31 g ai/ha
  Plant response rating, Johnsongrass: 70
[14]; 62 g ai/ha, Preemergence
  Dayflower plant response rating: 100
[14]; 125 g ai/ha, preemergence
  Dayflower plant response rating: 100
[14]; Preemergence, 16 g ai/ha
  Plant response rating, Dayflower: 0
[14]; Preemergence, 31 g ai/ha
  Plant response rating, Dayflower: 80
[15]; 62 g ai/ha, Preemergence
  Dallisgrass plant response rating: 90
[15]; 125 g ai/ha, preemergence
  Dallisgrass plant response rating: 100
[15]; Preemergence, 16 g ai/ha
  Plant response rating, Dallisgrass: 65
[15]; Preemergence, 31 g ai/ha
  Plant response rating, Dallisgrass: 80
